≈ marks a conversion by molar mass, not a printed value.

Assay [1] relates to DU145 cells. Put plainly: MTT assay (cytotoxicity / cell proliferation) in DU145. Type of assay: cell-based, human. As to conditions: Homo sapiens, DU-145; MTT assay, FIG. 4; read-out: GI50 against DU145. On the procedure: (§1) FIG. 4. Bioassay of compound I-1, compound I-2, and compound I-3. SPA14-3-2 is pure compound I-2. SPA14-3-3 is pure compound I-3. SPA14-3-4 is pure compound I-1. MTT assays using compound I-1, compound I-2, and compound I-3 against DU145 and RWPE-1 cells lines.
FIG. 8. Cell proliferation assay. (A) DU145 or PC3 prostate cancer were plated at a density of 1,500 cells per well in 96-well plates and incubated 18 hours at 37° C. to allow adherence. They were untreated or treated by addition of different concentrations of compound I-1 (which were added directly to the medium) or vehicle (DMSO), and proliferation was measured using a 3-(4,5-dimethylthiazol-2-yl)-2,5-diphenyltetrazolium bromide MTT assay after 3 days of treatment. Points, mean of triplicate normalized samples to vehicle sample; bars, SE. (B) GI50 after 3 days of treatment. (C) Prostate cancer cells (DU145 or PC3) or a non-malignant epithelial cells (RWPE-1) were plated at a density of 1,000 cells per well in 96-well plates and incubated 18 hours at 37° C. to allow adherence. They were untreated or treated by addition of different concentrations of compound I-1 (added directly to the medium) or vehicle (DMSO), and proliferation was by MTT assay after 5 days of treatment. Points, mean of triplicate normalized samples to vehicle sample; bars, SE.
(§2) Isolation, NMR, and X-ray crystallographic analyses. Leaves, stems, and few fruits of Physalis angulate L (Solanaceae) were collected in Rio Domingusa. Kuith/Barranquita, Amazonas Department, Northeastern Peru, and identified by the team led by Walter Lewis (collection voucher 18597, Ext. 1159). Dried and grounded material (46 g) was extracted with ethanol (1 L, 95%) for 7 days. The evaporated crude extract (6.26 g) was denoted SPA. An aliquot (1.5 g) of SPA was partitioned between dichloromethane (40 mL) and water (40 mL), affording two fractions: organic (SPA1, 500 mg) and aqueous (SPA2, 600 mg). All MTT assays were performed as described in Bates et al. “G-Rich Oligonucleotides for Cancer Treatment” Chapter 21 of Methods in Molecular Biology, Gene Therapy of Cancer, Wolfgang Walther and Ulrike S. Stein (eds.), Vol. 542, 2009, Humana Press. […] SPA14-3 (30 mg) was treated on an HPLC using a reverse phase C18 column eluted in gradient mode of methanol and water (from 80% methanol to 100% methanol) and detected at 254 nm, yielding SPA14-3-1 (0 mg), SPA14-3-2 (1.2 mg of pure compound I-2), SPA14-3-3 (4.1 mg of pure compound I-3), and SPA14-3-4 (18 mg of pure compound I-1).
General Experimental Procedure. Compound I-1 was isolated as described in Example Set 1, above. For samples of compound I-1 used in Example Set 2, HPLC and NMR indicated a purity of at least 95%. All experiments described in Example Set 2 were repeated at least two or three times. […]
(In general: Tetrazolium dyes change colour on reduction, which living cells bring about.)

In assay [2] the test system is RWPE-1 cells. Put plainly: MTT assay (cytotoxicity) in RWPE-1. Type of assay: cell-based. Particulars: Homo sapiens, FIG. 4, read-out: GI50 against RWPE-1.
Text: as §1, §2
General Experimental Procedure. Compound I-1 was isolated as described in Example Set 1, above. For samples of compound I-1 used in Example Set 2, HPLC and NMR indicated a purity of at least 95%. All experiments described in Example Set 2 were repeated at least two or three times. All MTT assays were performed according to Bates et al. “G-Rich Oligonucleotides for Cancer Treatment” Chapter 21 of Methods in Molecular Biology, Gene Therapy of Cancer, Wolfgang Walther and Ulrike S. Stein (eds.), Vol. 542, 2009, Humana Press.

For orientation: GI50 means the concentration at which growth is held to half of that of the control. Regarding `CC12C[C@@H]([C@@]34CC[C@@]5(O3)C3C(O4)[C@H]4O[C@]46CC=CC(=O)[C@]6(C)[C@H]3CC[C@@]5(C)O)C(C[C@@]1(C)O)OC2=O` (stereo partly shown) [I-2], the GI50 in assay [1] was 3.4 µg/mL (≈ 6.79 µM); in assay [2] it was 3 µg/mL (≈ 5.99 µM).
The like results for `CC12C[C@@H]([C@@]34CC[C@@]5(O3)C3C(O4)[C@H]4O[C@]46CC=CC(=O)[C@]6(C)[C@H]3CC[C@]5(C)O)C(C[C@@]1(C)O)OC2=O` (stereo partly shown) [I-3] were, in that order, 3 µg/mL (≈ 5.99 µM) and 3.3 µg/mL (≈ 6.59 µM).

The values above are taken from US9492428B2, “Compounds, compositions, pharmaceutical compositions, and methods of use” (University of Louisville Research Foundation, Inc., priority 2011, dated 2016).
